From US12708641B2 (priority 2020, dated 2026)

Columns and labels:
Type in all cases: cell-based
[1] = tested on: rat HEV replicon LA-B350/luc; assay: antiviral activity against rat HEV replicon LA-B350/luc in Huh7 cells (Gaussia luciferase); settings: Huh-7, 72 h, 3 days, 50% reduction in Luc signal, two experiments
[2] = viability evaluation (MTS/PMS) of replicon RNA-transfected Huh7 cells, Example 2; settings: human, highest tested concentration 50 μM
From the text: Obtained values are expressed as percent inhibition of untreated RNA-transfected control condition.

[3] = tested on: HEV Genotype 3 replicon Kernow-C1 p6/luc; assay: antiviral activity against HEV Genotype 3 replicon Kernow-C1 p6/luc in Huh7 cells (Gaussia luciferase); settings: Huh-7, 96 h, 4 days, 4PL model, two experiments, read-out: relative EC50
[4] = viability evaluation (MTS/PMS) of Kernow-C1 p6/luc RNA-transfected Huh7 cells, Example 3; settings: human, highest tested concentration 50 μM, read-out: relative CC50
Experimental: For viability evaluation, medium was removed and cells were subsequently incubated with MTS/PMS solution (3-(4,5-dimethylthiazol-2-yl)-5-(3-carboxymethoxyphenyl)-2-(4-sulfophenyl)-2H-tetrazolium/phenazinemethosulfate), which is metabolized to produce a brown, water-soluble product that is quantified after 1 h at 37° C. by absorbance read-out at 498 nm. Obtained values are expressed as percentage of untreated RNA-transfected control condition.

Compound	EC50 [1]	CC50 [2]	EC50 [3]	CC50 [4]
CCOc1nc(N)nc2c1ncn2[C@@H]1O[C@](F)(CO[P@](=O)(N[C@@H](C)C(=O)OC2CCCCC2)Oc2ccccc2)[C@@H](O)[C@@]1(C)F [Compound 1]	< 0.00064 µM	> 50 µM	0.013 µM	≤ 50 µM
CCOc1nc(N)nc2c1ncn2[C@@H]1O[C@](F)(COP(=O)(N[C@@H](C)C(=O)OC2CCCCC2)Oc2ccccc2)[C@@H](O)[C@@]1(C)O (stereo partly drawn) [Compound 2]	0.0089 µM		0.011 µM	
CCOc1nc(N)nc2c1ncn2[C@@H]1O[C@](F)(COP(=O)(OCOC(=O)OC(C)C)OCOC(=O)OC(C)C)[C@@H](O)[C@@]1(C)F [Compound 3]	0.0099 µM		0.012 µM	
CCOc1nc(N)nc2c1ncn2[C@@H]1O[C@](F)(COP(=O)(N[C@@H](C)C(=O)OC(C)C)Oc2ccccc2)[C@@H](O)[C@@]1(C)F (stereo partly drawn) [Compound 4]	0.036 µM	> 50 µM	0.0065 µM	
CCOc1nc(N)nc2c1ncn2[C@@H]1O[C@](F)(COP(=O)(OCOC(=O)OC(C)C)OCOC(=O)OC(C)C)[C@@H](O)[C@@]1(C)O [Compound 6]	0.023 µM		0.026 µM	
CC(C)OC(=O)[C@H](C)N[P@](=O)(OC[C@@]1(F)O[C@@H](n2ccc(=O)[nH]c2=O)[C@](C)(O)[C@@H]1O)Oc1ccccc1 [Compound 7]	0.11 µM		0.042 µM	
CCOc1nc(N)nc2c1ncn2[C@@H]1O[C@]2(F)CO[P@@](=O)(N[C@H](C)C(=O)OC(C)C)O[C@H]2[C@@]1(C)F [Compound 8]	0.86 µM		0.22 µM	
CC(C)OC(=O)OCOP(=O)(OCOC(=O)OC(C)C)OC[C@@]1(F)O[C@@H](n2ccc(=O)[nH]c2=O)[C@](C)(O)[C@@H]1O [Compound 9]	4.8 µM		> 50 µM	
C=CCOP1(=O)OC[C@@]2(F)O[C@@H](n3cnc4c(OCC)nc(N)nc43)[C@](C)(F)[C@@H]2O1 (stereo partly drawn) [Compound 10]	5.7 µM	> 50 µM	1.3 µM	
CC(C)OC(=O)OCOP(=O)(OCOC(=O)OC(C)C)OC[C@@]1(F)O[C@@H](n2ccc(=O)[nH]c2=O)[C@](C)(F)[C@@H]1O [Compound 11]	7.3 µM		0.72 µM	
